Experimental data published in ChEMBL document CHEMBL4270485, “Determination of Gymnemic Acid I as a Protein Biosynthesis Inhibitor Using Chemical Proteomics” (J Nat Prod, 2017).
The source made the active and inactive calls. The rule behind the calls is not given here.

Experiments:
[1] = Drug internalization in human HeLa cells at 1 uM by RP-HPLC-MS analysis; assay type: ADME, cell-based
HeLa = assay: Inhibition of protein synthesis in human HeLa cells at 50 to 500 uM pre-incubated for 1 hr before L-[35S]-cysteine and L-[35S]-methionine addition and measured after 1 hr by Comassie staining based autoradiography; assay type: functional, cell-based

Drug uptake [1]: 15%
Structure (SMILES): C/C=C(\C)C(=O)O[C@H]1[C@H](O)[C@]2(COC(C)=O)[C@@H](O)C[C@]3(C)C(=CC[C@@H]4[C@@]5(C)CC[C@H](O[C@@H]6O[C@H](C(=O)NCC)[C@@H](O)[C@H](O)[C@H]6O)[C@@](C)(CO)[C@@H]5CC[C@]43C)[C@@H]2CC1(C)C
inhibition (HeLa): inactive
